The results in this text go back to patent US5164295A, “Method for identifying amyloid protein-extracellular matrix protein affinity altering compounds” (The Upjohn Company, priority 1991, dated 1992).

One experiment relates to BSA. Put plainly: ELISA control: binding of HSPG to BSA coated wells. The arrangement: species or system bovine. On the procedure: The assay used in studying the interaction between HSPG and protein ligands was an ELISA technique. Briefly, polystyrene micro-titer plates (Linbro, Flow Lab Inc.) were coated with a 100 μl solution, containing 1 μg/ml of the protein of interest (one of the three forms of AAP or fibronectin) in 20 mM NaHCO3 buffer pH 9.6. After incubation overnight at 4° C., the plates were rinsed with 0.15M NaCl, 20 mM Tris-Cl pH 7.5 (TBS). The plates were then incubated with 150 μl of 1% BSA in TBS for 2 hours at 37° C. to block the residual hydrophobic surface on the wells. After rinsing with TBS containing 0.05% (w/v) Tween 20 (TBS-Tween), 100 μl of various concentrations of HSPG in TBS-Tween were added. […] Finally, after further washing, the bound antibodies were detected by adding an alkaline phosphatase substrate solution (100 μl) containing 2 mg/ml p-nitrophenyl phosphate, 0.1 mM ZnCl2, 1 mM MgCl2 and 100 mM glycine pH 10. […] The absorbance of the released p-nitrophenol was measured at 405 nm with a Titertek Multiscan/MCC 340 (Flow Lab. Ltd.). The amounts of HSPG bound were determined by the net OD405 after substracting the OD from the blank wells in which the HSPG incubation step was omitted. When the actual amounts of HSPG bound were to be calculated, a set of standards (0.05-50 ng/well) of HSPG in NaHCO3 buffer were pre-coated into wells on the same plates as the test proteins. […]
In general terms: In an ELISA, binding on a coated surface is turned into a signal by an enzyme label.

In another experiment the target is AAP695 /s. Put plainly: ELISA: binding of free HSPG (intact or core protein) to immobilized AAP695 /s. The procedure: (§1) To study the interaction between HSPG and either AAP770 /s, AAP751 /s, AAP695 /s or fibronectin, the AAP proteins and fibronectin were individually immobilized on polystyrene wells and incubated with increasing concentrations of purified HSPG. Fibronectin was used as a test protein because of its known affinity for HSPG. […] To address this concern, the purified protein core of HSPG in place of the intact proteoglycan was utilized to examine the role of the protein component.
(§2) The assay used in studying the interaction between HSPG and protein ligands was an ELISA technique. Briefly, polystyrene micro-titer plates (Linbro, Flow Lab Inc.) were coated with a 100 μl solution, containing 1 μg/ml of the protein of interest (one of the three forms of AAP or fibronectin) in 20 mM NaHCO3 buffer pH 9.6. After incubation overnight at 4° C., the plates were rinsed with 0.15M NaCl, 20 mM Tris-Cl pH 7.5 (TBS). The plates were then incubated with 150 μl of 1% BSA in TBS for 2 hours at 37° C. to block the residual hydrophobic surface on the wells. After rinsing with TBS containing 0.05% (w/v) Tween 20 (TBS-Tween), 100 μl of various concentrations of HSPG in TBS-Tween were added. The plates were left overnight at 4° C., to permit maximum binding of HSPG to the coated proteins. The plates were then washed extensively and incubated for 2 hours at 37° C., with 100 μl of anti-HSPG diluted in TBS-Tween containing 0.1% BSA. […] Finally, after further washing, the bound antibodies were detected by adding an alkaline phosphatase substrate solution (100 μl) containing 2 mg/ml p-nitrophenyl phosphate, 0.1 mM ZnCl2, 1 mM MgCl2 and 100 mM glycine pH 10. […] The absorbance of the released p-nitrophenol was measured at 405 nm with a Titertek Multiscan/MCC 340 (Flow Lab. Ltd.). The amounts of HSPG bound were determined by the net OD405 after substracting the OD from the blank wells in which the HSPG incubation step was omitted. When the actual amounts of HSPG bound were to be calculated, a set of standards (0.05-50 ng/well) of HSPG in NaHCO3 buffer were pre-coated into wells on the same plates as the test proteins. […] The actual amounts of HSPG bound to the test proteins were calculated from the OD405 standard curve produced by the HSPG standards using a Titersoft II E.J.A. software program (Flow Lab. Ltd.). […]
To determine the Kd of the protein-HSPG complex, the binding data were analyzed assuming a thermodynamic equilibrium for the formation of the complex, B, from the ligand in solution, HSPG, and the uncomplexed protein adsorbed to the microtiter well, R, according to the equation: [formula] Due to the nature of the experimental design, nonspecific binding could not be measured directly. […]

A further experiment concerns the target AAP751 /s. Put plainly: ELISA: binding of free HSPG (intact or core protein) to immobilized AAP751 /s. Particulars: for Kd: absence of test compounds, mean ± SD, read-out: Kd of HSPG (intact or core protein) complex with AAP751 /s. On the procedure:
as §1
as §2, with “added.” for “added. The plates were left overnight at 4° C., to permit maximum binding of HSPG to the coated proteins. The plates were then washed extensively and incubated for 2 hours at 37° C., with 100 μl of anti-HSPG diluted in TBS-Tween containing 0.1% BSA.”

The target of the next experiment is fibronectin. Put plainly: ELISA: binding of free HSPG (intact or core protein) to immobilized fibronectin. Also on record: species or system bovine. As to conditions: absence of test compounds; mean ± SD; read-out: Kd of HSPG (intact or core protein) complex with fibronectin. The source says: Fibronectin (from bovine plasma), heparin (grade II from porcine intestinal mucosa, average molecular weight=[…]), heparan sulfate, chondroitin sulfate, dextran sulfate, BSA, and alkaline phosphatase substrate were obtained from Sigma, St. Louis, Mo. Alkaline phosphatase conjugated goat anti-rabbit IgG was obtained from Boehringer-Manneheim, and heparitinase from ICN Biochemicals.
To study the interaction between HSPG and either AAP770 /s, AAP751 /s, AAP695 /s or fibronectin, the AAP proteins and fibronectin were individually immobilized on polystyrene wells and incubated with increasing concentrations of purified HSPG. Fibronectin was used as a test protein because of its known affinity for HSPG. […]
(§3) The assay used in studying the interaction between HSPG and protein ligands was an ELISA technique. […] Finally, after further washing, the bound antibodies were detected by adding an alkaline phosphatase substrate solution (100 μl) containing 2 mg/ml p-nitrophenyl phosphate, 0.1 mM ZnCl2, 1 mM MgCl2 and 100 mM glycine pH 10. […] The absorbance of the released p-nitrophenol was measured at 405 nm with a Titertek Multiscan/MCC 340 (Flow Lab. Ltd.). The amounts of HSPG bound were determined by the net OD405 after substracting the OD from the blank wells in which the HSPG incubation step was omitted. […]

Another experiment addresses AAP770 /s. Put plainly: ELISA: binding of free HSPG to immobilized AAP770 /s. Particulars: absence of test compounds, mean ± SD, read-out: Kd of HSPG complex with AAP770 /s. On the procedure: as §1
as §3, with “omitted. When the actual amounts of HSPG bound were to be calculated, a set of standards (0.05-50 ng/well) of HSPG in NaHCO3 buffer were pre-coated into wells on the same plates as the test proteins.” for “omitted.”

“And” between values parts separate entries of the source, which are not always exact repeats. Identical values can stand only once. Like-named read-outs stand apart in the source and are kept apart here.

For the substance “heparan sulfate proteoglycan [Intact HSPG]”, in the experiment on BSA, the “binding of HSPG to BSA in comparison to the tested proteins” value was “negligible”. Moreover, the Kd on AAP695 /s (absence of test compounds, mean ± SD, listed as HSPG, read-out: Kd of HSPG (intact or core protein) complex with AAP695 /s) is 0.88 nM and ~0.9 nM; at AAP695 /s (absence of test compounds, mean ± SD, listed as intact HSPG, read-out: Kd of HSPG (intact or core protein) complex with AAP695 /s) it was 0.9 ± 0.25 nM; at AAP695 /s (absence of test compounds, mean ± SD, read-out: Kd of HSPG (intact or core protein) complex with AAP695 /s), 0.88 ± 0.35 nM; at AAP695 /s (heparin 400 μg/ml, read-out: Kd of HSPG (intact or core protein) complex with AAP695 /s in presence of heparin), 3.56 ± 1.78 nM; at AAP751 /s (listed as HSPG) it was 10.2 nM and 9 to 10 nM; at AAP751 /s, 10.2 ± 2.45 nM. The Kd is 0.98 nM on fibronectin; 9.13 nM and 9 to 10 nM at AAP770 /s (listed as HSPG); 9.13 ± 1.06 nM on AAP770 /s. Also, the “Bmax, total binding capacity” value in the experiment on AAP751 /s (typical experiment using AAP751 /s) was determined as 15.9±0.2 ng HSPG.
